Experiment [1] has as its target T1, rat recombinant D3 receptors (expressed in Sf9 cells) (Rattus norvegicus, UniProt P19020).
T1 construct: purchased Packard BioScience, BioSignal Packard Inc. 6110139; host or cells: Sf9 cells
Briefly: D3 receptor binding, [3H]-spiperone. To be noted: rat recombinant D3, [3H]-spiperone 0.85 nM; read-out: rD3 Ki. As for the experimental part:
Binding assays were carried out on rat recombinant D3 receptors (expressed in Sf9 cells) according to the supplier instructions (Packard BioScience, BioSignal Packard Inc. Cat. No. 6110139, Technical Data Sheet) using [^3H]-spiperone (0.85 nM) as ligand and haloperidol (10 μM) for determination of non-specific binding.

Experiment [2] addresses T2, D2 receptor (rat brain striatal membrane preparation) (Rattus norvegicus, UniProt P61169).
T2 construct: on rat brain striatal membrane preparation; from tissue; host or cells: rat brain striatum membranes
Briefly: D2 receptor binding, [3H]-spiperone. The conditions noted are these: rat brain striatal membranes, [3H]-spiperone 0.6 nM; read-out: rD2 Ki. As for the experimental part:
D2 receptor binding assay was carried out as described by Creese et al., European Journal of Pharmacology, 60, 55-66, 1979) on rat brain striatal membrane preparation using [^3H]-spiperone (0.6 nM) as ligand. The non-specific binding was determined in the presence of 1 μM (+)-butaclamol.

The target in experiment [3] is Alpha-1 receptor (rat brain cortical membrane preparation). Description: Alpha-1 receptor binding, [3H]-prasosin. The conditions noted are these: rat brain cortical membranes, [3H]-prasosin 0.5 nM. As for the experimental part: 3. Alpha-1 Receptor Binding
Alpha-1 receptor binding study was performed according to the method described by Greengrass and Bremmer (European Journal of Pharmacology 55:323-326, 1979) on rat brain cortical membrane preparation using [^3H]-prasosin (0.5 nM) as ligand. The non-specific binding was determined in the presence of 10 μM phentolamine.

Experiment [4] relates to dopamine D3/D2 receptor. The conditions noted are these: background statement; cited from earlier work.
For experiment [5], the target named is 5-HT2C (Homo sapiens, UniProt P28335). To be noted: background statement; cited from earlier work.
Chain of 5-HT2C (P28335 33-458, species assumed): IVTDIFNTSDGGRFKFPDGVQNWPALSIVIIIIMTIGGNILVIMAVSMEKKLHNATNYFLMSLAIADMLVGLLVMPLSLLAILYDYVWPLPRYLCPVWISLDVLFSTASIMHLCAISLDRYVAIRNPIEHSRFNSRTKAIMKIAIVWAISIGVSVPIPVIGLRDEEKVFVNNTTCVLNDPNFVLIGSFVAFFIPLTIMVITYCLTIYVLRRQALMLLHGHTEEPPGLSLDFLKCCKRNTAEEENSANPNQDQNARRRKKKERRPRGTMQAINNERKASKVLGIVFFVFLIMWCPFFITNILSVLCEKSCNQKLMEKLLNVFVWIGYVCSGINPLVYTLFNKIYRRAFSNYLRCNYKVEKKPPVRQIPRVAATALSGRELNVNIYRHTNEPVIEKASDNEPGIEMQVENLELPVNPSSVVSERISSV
Experiment [6] addresses histamine H1 (Homo sapiens, UniProt P35367). The conditions noted are these: background statement; cited from earlier work.
The subject of experiment [7] is adrenergic receptor sites. The conditions noted are these: background statement; cited from earlier work.

As usually defined, the Ki is a measure of affinity in units of concentration, obtained from inhibition or displacement.

Where only a bound is given, the exact number is not on record here.

T2 sequence (P61169 whole entry): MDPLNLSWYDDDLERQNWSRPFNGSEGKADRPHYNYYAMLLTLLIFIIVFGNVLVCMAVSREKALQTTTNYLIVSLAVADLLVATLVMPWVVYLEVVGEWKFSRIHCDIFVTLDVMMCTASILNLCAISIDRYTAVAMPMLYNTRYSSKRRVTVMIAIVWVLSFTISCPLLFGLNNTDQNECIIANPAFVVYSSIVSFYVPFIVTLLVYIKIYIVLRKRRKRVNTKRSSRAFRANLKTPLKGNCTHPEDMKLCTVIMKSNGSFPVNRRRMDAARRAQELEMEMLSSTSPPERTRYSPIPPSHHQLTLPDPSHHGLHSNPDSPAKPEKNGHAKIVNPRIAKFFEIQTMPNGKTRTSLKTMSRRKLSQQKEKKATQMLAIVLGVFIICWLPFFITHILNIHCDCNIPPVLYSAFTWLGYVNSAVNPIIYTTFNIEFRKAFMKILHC
T1 sequence (P19020 whole entry): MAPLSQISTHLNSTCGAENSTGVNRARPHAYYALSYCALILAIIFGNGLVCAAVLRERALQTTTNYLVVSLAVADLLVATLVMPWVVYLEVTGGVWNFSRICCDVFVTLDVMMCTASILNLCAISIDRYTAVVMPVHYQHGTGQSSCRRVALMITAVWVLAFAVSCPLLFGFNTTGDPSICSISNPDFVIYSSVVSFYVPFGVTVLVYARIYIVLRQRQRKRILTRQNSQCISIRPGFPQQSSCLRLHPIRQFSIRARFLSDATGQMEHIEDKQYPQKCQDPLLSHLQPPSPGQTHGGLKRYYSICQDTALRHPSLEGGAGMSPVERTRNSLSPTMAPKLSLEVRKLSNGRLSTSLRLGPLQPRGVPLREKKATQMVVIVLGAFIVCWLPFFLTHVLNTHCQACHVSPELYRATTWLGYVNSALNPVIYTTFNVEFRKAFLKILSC
Chain of histamine H1 (P35367 whole entry): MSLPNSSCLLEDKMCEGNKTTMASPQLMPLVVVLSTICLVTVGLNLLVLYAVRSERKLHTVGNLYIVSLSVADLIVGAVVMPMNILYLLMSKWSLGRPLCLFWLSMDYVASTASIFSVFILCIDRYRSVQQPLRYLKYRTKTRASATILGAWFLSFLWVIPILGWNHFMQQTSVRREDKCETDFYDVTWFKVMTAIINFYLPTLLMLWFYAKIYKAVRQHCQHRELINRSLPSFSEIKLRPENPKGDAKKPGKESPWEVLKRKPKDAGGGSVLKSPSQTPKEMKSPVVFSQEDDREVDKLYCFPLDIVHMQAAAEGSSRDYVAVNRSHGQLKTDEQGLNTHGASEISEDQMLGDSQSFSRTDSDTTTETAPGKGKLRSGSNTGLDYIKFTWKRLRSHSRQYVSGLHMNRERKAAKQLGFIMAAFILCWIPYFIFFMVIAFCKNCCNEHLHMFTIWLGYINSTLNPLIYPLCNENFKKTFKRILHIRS

With `NC(=O)N[C@H]1CC[C@H](CCN2CCN(c3ccc(O)c(Cl)c3Cl)CC2)CC1` [Compound A, Trans-1-{4-[2-[4-(2,3-dichloro-4-hydroxy-phenyl)-piperazin-1-yl]-ethyl]-cyclohexyl}-urea], the Ki is 0.26 nM in experiment [1], 8.4 nM in experiment [2] and more than 1000 nM in experiment [3].

Take `CNC(=O)N[C@H]1CC[C@H](CCN2CCN(c3ccc(O)c(Cl)c3Cl)CC2)CC1` [Compound B, Trans-1-{4-[2-[4-(2,3-dichloro-4-hydroxy-phenyl)-piperazin-1-yl]-ethyl]-cyclohexyl}-3-methyl-urea]: the Ki in experiment [1] was 0.24 nM; in experiment [2] it was 2.49 nM; in experiment [3], more than 1000 nM.

`CN(C)C(=O)N[C@H]1CC[C@H](CCN2CCN(c3ccc(O)c(Cl)c3Cl)CC2)CC1` [Compound C, Trans-1-{4-[2-[4-(2,3-dichloro-4-hydroxy-phenyl)-piperazin-1-yl]-ethyl]-cyclohexyl}-3,3-dimethyl-urea]: the Ki in experiment [1] is 0.37 nM; in experiment [2], 80.5 nM; in experiment [3] it was more than 1000 nM.

With `CN(C)C(=O)N[C@H]1CC[C@H](CC[N+]2([O-])CCN(c3cccc(Cl)c3Cl)CC2)CC1` [Compound D, Trans-1-{4-[2-[4-(2,3-dichlorophenyl)-1-oxo-piperazin-1-yl]-ethyl]-cyclohexyl}-3,3-dimethyl-urea], the Ki in experiment [1] was more than 10 nM; in experiment [2], more than 100 nM; in experiment [3] it was more than 1000 nM.

On to `CN(C)C(=O)NC1CCC(CCN2CCN(c3cccc(Cl)c3Cl)CC2)CC1.Cl` (stereo not drawn) [trans-4-{2-[4-(2,3-dichlorophenyl)-piperazin-1-yl]-ethyl}-N,N-dimethylcarbamoyl-cyclohexylamine hydrochloride], for which the “D3 receptor antagonism relative to D2 receptor antagonism” value in experiment [4] was “about one order of magnitude greater”. For the same compound, the “potency at 5-HT2C receptor site” value in experiment [5] is listed as “low potency”. In experiment [6], the “potency at histamine H1 receptor site” value was “low potency”. For the same compound, in experiment [7], the “potency at adrenergic receptor sites” value was “low potency”.

The values above are taken from US8765765B2, “Metabolites of (thio) carbamoyl-cyclohexane derivatives” (Richter Gedeon Nyrt., priority 2007, dated 2014).
